# Measurements published in US20250171423A1, “PHARMACEUTICAL COMPOUNDS FOR THE TREATMENT OF COMPLEMENT MEDIATED DISORDERS” (Achillion Pharmaceuticals, Inc., priority 2020, published 2025).
# Biological target: T1, Human complement C1s enzyme (Homo sapiens, UniProt P09871)
# T1 construct: purified from human serum, Complement Technology, Inc; purchased Complement Technology, Inc; host or cells: human serum
# T1 sequence (P09871 438-688 limits assumed): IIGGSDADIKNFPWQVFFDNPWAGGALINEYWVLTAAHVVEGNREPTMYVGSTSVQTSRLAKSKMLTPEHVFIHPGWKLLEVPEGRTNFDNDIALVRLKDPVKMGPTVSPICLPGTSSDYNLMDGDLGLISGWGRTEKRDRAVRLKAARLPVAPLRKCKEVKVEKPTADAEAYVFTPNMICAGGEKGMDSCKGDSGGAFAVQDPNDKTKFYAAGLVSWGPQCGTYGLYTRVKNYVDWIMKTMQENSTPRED
# T1 sequence (P09871 16-437 partner limits assumed): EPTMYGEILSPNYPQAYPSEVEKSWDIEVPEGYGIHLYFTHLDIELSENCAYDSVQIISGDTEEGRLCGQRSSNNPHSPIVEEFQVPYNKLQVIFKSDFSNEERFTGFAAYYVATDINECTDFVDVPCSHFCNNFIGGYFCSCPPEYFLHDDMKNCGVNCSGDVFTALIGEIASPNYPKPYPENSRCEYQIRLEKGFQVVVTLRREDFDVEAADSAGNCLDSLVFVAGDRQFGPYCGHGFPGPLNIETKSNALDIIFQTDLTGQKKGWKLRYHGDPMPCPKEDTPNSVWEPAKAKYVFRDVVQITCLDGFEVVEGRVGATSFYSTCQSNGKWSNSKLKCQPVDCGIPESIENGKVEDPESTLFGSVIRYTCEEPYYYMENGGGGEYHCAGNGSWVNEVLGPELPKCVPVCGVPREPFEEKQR
# Assay: Human C1s Enzyme Assay
# Type: biochemical
# Settings: human C1s 1.16 nM, 5 min preincubation, substrate Z-L-Lys-SBzl 100 μM, A405; read-out: C1s Protease Activity
# Procedure, shortened: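 C1s purified from human serum (1.16 nM final) was preincubated with compound for 5 min at room temperature in 50 mM Tris, 1 M NaCl, pH 7.5. Z-L-Lys-SBzl and DTNB were then added at 100 μM each, and A405 was followed for 30 min. IC50 came from nonlinear regression of reaction rates.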
row,Structure (SMILES),IC50 [nM]
1,"C[C@@]12C[C@@H]1N(C(=O)CNC(=O)c1ccc(Oc3ccccc3)cc1)[C@H](C(=O)NC1CCc3c(C(=N)N)csc3C1)C2 (stereo partly drawn) [Compound 258, (1S,3S,5S)-N-(3-carbamimidoyl-4,5,6,7-tetrahydrobenzo[b]thiophen-6-yl)-5-methyl-2-((4-phenoxybenzoyl)glycyl)-2-azabicyclo[3.1.0]hexane-3-carboxamide]",> 1000
2,"C[C@@]12C[C@@H]1N(C(=O)CNC(=O)c1ccc3c(c1)-c1ccccc1C3(F)F)[C@H](C(=O)NCc1cc(C(=N)N)cs1)C2 [Compound 103, (1S,3S,5S)-N-((4-carbamimidoylthiophen-2-yl)methyl)-2-((9,9-difluoro-9H-fluorene-3-carbonyl)glycyl)-5-methyl-2-azabicyclo[3.1.0]hexane-3-carboxamide]",< 100
3,"C[C@@]12C[C@@H]1N(C(=O)CNC(=O)c1ccc(Oc3ccc(P(C)(=O)O)cc3)cc1)[C@H](C(=O)NCc1cc(C(=N)N)cs1)C2 [Compound 53, (4-(4-((2-((1S,3S,5S)-3-(((4-carbamimidoylthiophen-2-yl)methyl)carbamoyl)-5-methyl-2-azabicyclo[3.1.0]hexan-2-yl)-2-oxoethyl)carbamoyl)phenoxy)phenyl)-(methyl)phosphinic acid]",100 to 1000
4,"C[C@@]12C[C@@H]1N(C(=O)CNC(=O)c1ccc(Oc3ccccc3)nc1)[C@H](C(=O)NCc1cc(C(=N)N)cs1)C2 [Compound 143, (1S,3S,5S)-N-((4-carbamimidoylthiophen-2-yl)methyl)-5-methyl-2-((6-phenoxynicotinoyl)glycyl)-2-azabicyclo[3.1.0]hexane-3-carboxamide]",< 100
5,"C[C@@H](NC(=O)[C@@H]1C[C@]2(C)C[C@@H]2N1C(=O)CNC(=O)[C@H](CCOc1ccccc1)NC(=O)CCC(=O)O)c1cc(C(=N)N)cs1 [Compound 184, 4-(((S)-1-((2-((1S,3S,5S)-3-(((R)-1-(4-carbamimidoylthiophen-2-yl)ethyl)carbamoyl)-5-methyl-2-azabicyclo[3.1.0]hexan-2-yl)-2-oxoethyl)amino)-1-oxo-4-phenoxybutan-2-yl)amino)-4-oxobutanoic acid]",< 100
6,"COC[C@@H]1C[C@@H](C(=O)N[C@H](C)c2cc(C(=N)N)cs2)N(C(=O)CNC(=O)c2ccc(Oc3ccccc3)cc2)C1 [Compound 253, (2S,4R)-N-((R)-1-(4-carbamimidoylthiophen-2-yl)ethyl)-4-(methoxymethyl)-1-((4-phenoxybenzoyl)glycyl)pyrrolidine-2-carboxamide]",< 100
7,"COCCOCCCC(=O)NCC(=O)N1[C@H]2C[C@@]2(C)C[C@H]1C(=O)NCc1cc(C(=N)N)cs1 [Compound 136, (1S,3S,5S)-N-((4-carbamimidoylthiophen-2-yl)methyl)-2-((4-(2-methoxyethoxy)butanoyl)glycyl)-5-methyl-2-azabicyclo[3.1.0]hexane-3-carboxamide]",100 to 1000
8,"C[C@@]12C[C@@H]1N(C(=O)CNC(=O)c1ccc(Oc3ccccc3)cc1)[C@H](C(=O)NCCc1cc(C(=N)N)cs1)C2 [Compound 52, (1S,3S,5S)-N-(2-(4-carbamimidoylthiophen-2-yl)ethyl)-5-methyl-2-((4-phenoxy-benzoyl)glycyl)-2-azabicyclo[3.1.0]hexane-3-carboxamide]",< 100

# Continued, values first:
row,IC50 [nM],Structure (SMILES)
1,< 100,"CC1(c2ccc(OCCCC(=O)NCC(=O)N3[C@H]4C[C@@]4(C)C[C@H]3C(=O)NCc3cc(C(=N)N)cs3)cc2)COC1 [Compound 140, (1S,3S,5S)-N-((4-carbamimidoylthiophen-2-yl)methyl)-5-methyl-2-((4-(4-(3-methyloxetan-3-yl)phenoxy)butanoyl)glycyl)-2-azabicyclo[3.1.0]hexane-3-carboxamide]"
2,< 100,"N=C(N)c1csc(CNC(=O)[C@@H]2CC(=C(F)F)CN2C(=O)CNC(=O)c2ccc(Oc3ccccc3)cc2)c1 [Compound 1, (S)-N-((4-carbamimidoylthiophen-2-yl)methyl)-4-(difluoromethylene)-1-((4-phenoxybenzoyl)glycyl)pyrrolidine-2-carboxamide]"
3,< 100,"Cc1ccc(OCCCC(=O)NCC(=O)N2CC3(C[C@H]2C(=O)NCc2cc(C(=N)N)cs2)OCCO3)cc1 [Compound 64, (S)-N-((4-carbamimidoylthiophen-2-yl)methyl)-7-((4-(p-tolyloxy)butanoyl)glycyl)-1,4-dioxa-7-azaspiro[4.4]nonane-8-carboxamide]"
4,< 100,"N=C(N)c1csc(CNC(=O)[C@@H]2CC3(CN2C(=O)CNC(=O)CCCOc2ccnc(F)c2)OCCO3)c1 [Compound 206, (S)-N-((4-carbamimidoylthiophen-2-yl)methyl)-7-((4-((2-fluoropyridin-4-yl)oxy)butanoyl)glycyl)-1,4-dioxa-7-azaspiro[4.4]nonane-8-carboxamide]"
5,< 100,"C[C@@H](NC(=O)[C@@H]1C[C@H](C2CCCCC2)CN1C(=O)CNC(=O)c1ccc(Oc2ccccc2)cc1)c1cc(C(=N)N)cs1 [Compound 241, (2S,4R)-N-((R)-1-(4-carbamimidoylthiophen-2-yl)ethyl)-4-cyclohexyl-1-((4-phenoxybenzoyl)glycyl)pyrrolidine-2-carboxamide]"
6,< 100,"N=C(N)c1csc(CNC(=O)[C@@H]2C[C@@H](Cc3ccc(C(F)(F)F)cc3)CN2C(=O)CNC(=O)c2ccc(Oc3ccccc3)cc2)c1 [Compound 17, (2S,4R)-N-((4-carbamimidoylthiophen-2-yl)methyl)-1-((4-phenoxybenzoyl)glycyl)-4-(4-(trifluoromethyl)benzyl)pyrrolidine-2-carboxamide]"
7,< 100,"CN(C)C[C@@]1(F)C[C@@H](C(=O)NCc2cc(C(=N)N)cs2)N(C(=O)CNC(=O)CCCOc2ccccc2)C1 [Compound 129, (2S,4S)-N-[(4-carbamimidoylthiophen-2-yl)methyl]-4-[(dimethylamino)methyl]-4-fluoro-1-[2-(4-phenoxybutanamido)acetyl]pyrrolidine-2-carboxamide]"
8,< 100,"C[C@@]12C[C@@H]1N(C(=O)CNC(=O)c1ccc(Oc3ccccc3)cc1)[C@H](C(=O)OCc1cc(C(=N)N)cs1)C2 [Compound 89, (1S,3S,5S)-(4-carbamimidoylthiophen-2-yl)methyl 5-methyl-2-((4-phenoxybenzoyl)glycyl)-2-azabicyclo[3.1.0]hexane-3-carboxylate]"
9,< 100,"C[C@@H](NC(=O)[C@@H]1C[C@@H](c2ccccc2)CN1C(=O)CNC(=O)c1ccc(Oc2ccccc2)cc1)c1cc(C(=N)N)cs1 [Compound 246, (2S,4S)-N-((R)-1-(4-carbamimidoylthiophen-2-yl)ethyl)-1-((4-phenoxybenzoyl)glycyl)-4-phenylpyrrolidine-2-carboxamide]"
10,< 100,"C[C@@]12C[C@@H]1N(C(=O)CNC(=O)c1ccc(C3(c4ccccc4)COC3)cc1)[C@H](C(=O)NCc1cc(C(=N)N)cs1)C2 [Compound 168, (1S,3S,5S)-N-((4-carbamimidoylthiophen-2-yl)methyl)-5-methyl-2-((4-(3-phenyloxetan-3-yl)benzoyl)glycyl)-2-azabicyclo[3.1.0]hexane-3-carboxamide]"
11,< 100,"N=C(N)c1csc(CNC(=O)[C@@H]2C[C@H](C(F)F)CN2C(=O)CNC(=O)c2ccc(Oc3ccccc3)cc2)c1 [Compound 51, (2S,4S)-N-((4-carbamimidoylthiophen-2-yl)methyl)-4-(difluoromethyl)-1-((4-phenoxybenzoyl)glycyl)pyrrolidine-2-carboxamide]"
